The results in this text go back to patent US8987195B2 (priority 2012, dated 2015).

Where only a bound is given, the exact number is not on record here.

One assay deals with HCV genotype 1b replicon. The experiment in a line: HCV replicon assay, genotype 1b replicon EC50. In kind it is cell-based, Hepatitis C virus. The note with it: Hepatitis C virus, genotype 1b replicon; read-out: EC50 [gt-1b]. An outline of the steps:
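Readout was replicon RNA copy number, by 32P-probe protection or TaqMan normalized to cellular cyclophilin A RNA, or luciferase activity for luciferase:Neo^r fusion lines. Cells were exposed to serially diluted compound for 24-48 hours without G418, then washed and lysed. EC50 derived from four-parameter fit relative to DMSO.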

In assay [1] the target is HCV NS3/4A protease genotype 1b (Hepatitis C virus genotype 1b, UniProt P26663). The experiment in a line: HCV NS3/4A protease time-resolved fluorescence (TRF) assay, Ki against genotype 1b. In kind it is biochemical. The note with it: IC50 [gt-1b] (nM), NS3/4A genotype 1b, enzyme 0.2 nM. An outline of the steps: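 Enzyme 0.2 nM 1b / 0.4 nM A156T / 0.025 nM 3a; 30 min preinc. w/ cpd; 25 nM TRF peptide; 2.5 h RT; ex 340/em 615 time-delayed; 4-param IC50 → Ki = IC50/(1+[S]/KM).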

Turning to `CC1(OC(=O)N[C@H]2CCCCC/C=C\[C@@H]3C[C@@]3(C(=O)NS(=O)(=O)C3(C)CC3)NC(=O)[C@@H]3C[C@]4(CCc5c(c(C6CC6)nc6c(F)cccc56)O4)CN3C2=O)CC1` [Example 168, 1-methylcyclopropyl [(2R,6S,12Z,13aS,14aR,16aS)-5′-cyclopropyl-7′-fluoro-14a-{[(1-methylcyclopropyl)sulfonyl]carbamoyl}-5,16-dioxo-1,1′,2′,5,6,7,8,9,10,11,13a,14,14a,15,16,16a-hexadecahydrospiro[cyclopropa[e]pyrrolo[1,2-a][1,4]diazacyclopentadecine-2,3′-pyrano[2,3-c]quinolin]-6-yl]carbamate], the half-maximal effective concentration (EC50) in the assay with HCV genotype 1b replicon stood at 3.73 nM. For the same molecule, the 50% inhibitory concentration (IC50) in assay [1] was 0.013 nM.

In the case of `COc1ccc2nc(C(C)C)c3c(c2c1)CC[C@]1(C[C@H]2C(=O)N[C@]4(C(=O)NS(=O)(=O)C5(C)CC5)C[C@H]4/C=C\CCCCC[C@H](NC(=O)OC4(C)CCC4)C(=O)N2C1)O3` [Example 169, 1-methylcyclobutyl [(2R,6S,12Z,13aS,14aR,16aS)-9′-methoxy-14a-{[(1-methylcyclopropyl)sulfonyl]carbamoyl}-5,16-dioxo-5′-(propan-2-yl)-1,1′,2′,5,6,7,8,9,10,11,13a,14,14a,15,16,16a-hexadecahydrospiro[cyclopropa[e]pyrrolo[1,2-a][1,4]diazacyclopentadecine-2,3′-pyrano[2,3-c]quinolin]-6-yl]carbamate], the EC50 in the assay with HCV genotype 1b replicon amounted to 1.53 nM. The molecule also yielded a half-maximal inhibitory concentration (IC50) in assay [1] of 0.019 nM.

In the case of `COc1ccc2nc(C3CCC3)c3c(c2c1)CC[C@]1(C[C@H]2C(=O)N[C@]4(C(=O)NS(=O)(=O)C5(C)CC5)C[C@H]4/C=C\CCCCC[C@H](NC(=O)OC4CCCC4)C(=O)N2C1)O3` [Example 170, cyclopentyl [(2R,6S,12Z,13aS,14aR,16aS)-5′-cyclobutyl-9′-methoxy-14a-{[(1-methylcyclopropyl)sulfonyl]carbamoyl}-5,16-dioxo-1,1′,2′,5,6,7,8,9,10,11,13a,14,14a,15,16,16a-hexadecahydrospiro[cyclopropa[e]pyrrolo[1,2-a][1,4]diazacyclopentadecine-2,3′-pyrano[2,3-c]quinolin]-6-yl]carbamate], the concentration for a half-maximal effect (EC50) in the assay with HCV genotype 1b replicon was 2.65 nM. The molecule also had an IC50 in assay [1] of 0.013 nM.

As to `COc1ccc2nc(C3CCC3)c3c(c2c1)CC[C@]1(C[C@H]2C(=O)N[C@]4(C(=O)NS(=O)(=O)C5(C)CC5)C[C@H]4/C=C\CCCCC[C@H](NC(=O)OCC(C)C)C(=O)N2C1)O3` [Example 171, 2-methylpropyl [(2R,6S,12Z,13aS,14aR,16aS)-5′-cyclobutyl-9′-methoxy-14a-{[(1-methylcyclopropyl)sulfonyl]carbamoyl}-5,16-dioxo-1,1′,2′,5,6,7,8,9,10,11,13a,14,14a,15,16,16a-hexadecahydrospiro[cyclopropa[e]pyrrolo[1,2-a][1,4]diazacyclopentadecine-2,3′-pyrano[2,3-c]quinolin]-6-yl]carbamate], in the assay with HCV genotype 1b replicon, the EC50 amounted to 1.62 nM. In assay [1], the half-maximal inhibitory concentration (IC50) worked out at 0.013 nM.

Consider `Cc1nc2ccccc2c2c1O[C@]1(CC2)C[C@H]2C(=O)N[C@]3(C(=O)NS(=O)(=O)C4(C)CC4)C[C@H]3/C=C\CCCCC[C@H](NCCc3ccccc3)C(=O)N2C1` [Example 172, (2R,6S,12Z,13aS,14aR,16aS)-5′-methyl-N-[(1-methylcyclopropyl)sulfonyl]-5,16-dioxo-6-[(2-phenylethyl)amino]-1,1′,2′,6,7,8,9,10,11,13a,14,15,16,16a-tetradecahydrospiro[cyclopropa[e]pyrrolo[1,2-a][1,4]diazacyclopentadecine-2,3′-pyrano[2,3-c]quinoline]-14a(5H)-carboxamide], for which the EC50 in the assay with HCV genotype 1b replicon came to 7.99 nM. In assay [1], this molecule yielded a half-maximal inhibitory concentration (IC50) of 0.24 nM.

As to `Cc1nc2ccccc2c2c1O[C@]1(CC2)C[C@H]2C(=O)N[C@]3(C(=O)NS(=O)(=O)C4(C)CC4)C[C@H]3/C=C\CCCCC[C@H](N(CCc3ccccc3)CCc3ccccc3)C(=O)N2C1` [Example 173, (2R,6S,12Z,13aS,14aR,16aS)-6-[bis(2-phenylethyl)amino]-5′-methyl-N-[(1-methylcyclopropyl)sulfonyl]-5,16-dioxo-1,1′,2′,6,7,8,9,10,11,13a,14,15,16,16a-tetradecahydrospiro[cyclopropa[e]pyrrolo[1,2-a][1,4]diazacyclopentadecine-2,3′-pyrano[2,3-c]quinoline]-14a(5H)-carboxamide], the EC50 in the assay on HCV genotype 1b replicon is over 100 nM. Moreover, the midpoint of inhibition in assay [1], the IC50, lay at 6.27 nM.

For the molecule `Cc1nc2ccc(OC(F)(F)F)cc2c2c1O[C@]1(CC2)C[C@H]2C(=O)N[C@]3(C(=O)NS(=O)(=O)C4(C)CC4)C[C@H]3/C=C\CCCCC[C@H](NC(=O)OC3(C)CCC3)C(=O)N2C1` [Example 174, 1-methylcyclobutyl [(2R,6S,12Z,13aS,14aR,16aS)-5′-methyl-14a-{[(1-methylcyclopropyl)sulfonyl]carbamoyl}-5,16-dioxo-9′-(trifluoromethoxy)-1,1′,2′,5,6,7,8,9,10,11,13a,14,14a,15,16,16a-hexadecahydrospiro[cyclopropa[e]pyrrolo[1,2-a][1,4]diazacyclopentadecine-2,3′-pyrano[2,3-c]quinolin]-6-yl]carbamate], the EC50 with HCV genotype 1b replicon was found to be 2.33 nM. Also, half-maximal inhibition in assay [1] (IC50) required 0.007 nM.

Regarding `CC1(S(=O)(=O)NC(=O)[C@@]23C[C@H]2/C=C\CCCCC[C@H](NC(=O)OC2CCC2)C(=O)N2C[C@@]4(CCc5c(c(C6CC6)nc6c(F)cccc56)O4)C[C@H]2C(=O)N3)CC1` [Example 175, cyclobutyl [(2R,6S,12Z,13aS,14aR,16aS)-5′-cyclopropyl-7′-fluoro-14a-{[(1-methylcyclopropyl)sulfonyl]carbamoyl}-5,16-dioxo-1,1′,2′,5,6,7,8,9,10,11,13a,14,14a,15,16,16a-hexadecahydrospiro[cyclopropa[e]pyrrolo[1,2-a][1,4]diazacyclopentadecine-2,3′-pyrano[2,3-c]quinolin]-6-yl]carbamate], the EC50 in the assay with HCV genotype 1b replicon turned out to be 1.67 nM. For the same molecule, the midpoint of inhibition in assay [1], the IC50, lay at 0.028 nM.

With `CC1(OC(=O)N[C@H]2CCCCC/C=C\[C@@H]3C[C@@]3(C(=O)NS(=O)(=O)C3(C)CC3)NC(=O)[C@@H]3C[C@]4(CCc5c(c(C6CC6)nc6c(F)cccc56)O4)CN3C2=O)CCCCC1` [Example 176, 1-methylcyclohexyl [(2R,6S,12Z,13aS,14aR,16aS)-5′-cyclopropyl-7′-fluoro-14a-{[(1-methylcyclopropyl)sulfonyl]carbamoyl}-5,16-dioxo-1,1′,2′,5,6,7,8,9,10,11,13a,14,14a,15,16,16a-hexadecahydrospiro[cyclopropa[e]pyrrolo[1,2-a][1,4]diazacyclopentadecine-2,3′-pyrano[2,3-c]quinolin]-6-yl]carbamate], the concentration for a half-maximal effect (EC50) in the assay with HCV genotype 1b replicon amounted to 2.26 nM. The molecule also displayed a half-inhibitory concentration (IC50) in assay [1] of 0.026 nM.

Take `Cc1nc2ccc(OC(F)(F)F)cc2c2c1O[C@]1(CC2)C[C@H]2C(=O)N[C@]3(C(=O)NS(=O)(=O)C4(C)CC4)C[C@H]3/C=C\CCCCC[C@H](NC(=O)OCC3COC3)C(=O)N2C1` [Example 177, oxetan-3-ylmethyl [(2R,6S,12Z,13aS,14aR,16aS)-5′-methyl-14a-{[(1-methylcyclopropyl)sulfonyl]carbamoyl}-5,16-dioxo-9′-(trifluoromethoxy)-1,1′,2′,5,6,7,8,9,10,11,13a,14,14a,15,16,16a-hexadecahydrospiro[cyclopropa[e]pyrrolo[1,2-a][1,4]diazacyclopentadecine-2,3′-pyrano[2,3-c]quinolin]-6-yl]carbamate]: in the assay with HCV genotype 1b replicon, the EC50 is 21.9 nM. This molecule also came in with a half-inhibitory concentration (IC50) in assay [1] of 0.011 nM.

As to `COc1ccc2nc(C(C)C)c3c(c2c1)CC[C@]1(C[C@H]2C(=O)N[C@]4(C(=O)NS(=O)(=O)C5(C)CC5)C[C@H]4/C=C\CCCCC[C@H](NC(=O)OCC4COC4)C(=O)N2C1)O3` [Example 178, oxetan-3-ylmethyl [(2R,6S,12Z,13aS,14aR,16aS)-9′-methoxy-14a-{[(1-methylcyclopropyl)sulfonyl]carbamoyl}-5,16-dioxo-5′-(propan-2-yl)-1,1′,2′,5,6,7,8,9,10,11,13a,14,14a,15,16,16a-hexadecahydrospiro[cyclopropa[e]pyrrolo[1,2-a][1,4]diazacyclopentadecine-2,3′-pyrano[2,3-c]quinolin]-6-yl]carbamate], in the assay with HCV genotype 1b replicon, the half-maximal effective concentration (EC50) is 11.1 nM. This molecule also registered a half-inhibitory concentration (IC50) in assay [1] of 0.007 nM.

For the molecule `Cc1nc2ccccc2c2c1O[C@]1(CC2)C[C@H]2C(=O)N[C@]3(C(=O)NS(=O)(=O)C4(C)CC4)C[C@H]3/C=C\CCCCC[C@H](NC(=O)O[C@@H]3C[C@H]4CC[C@@H]3C4)C(=O)N2C1` [Example 179, (1R,2R,4S)-bicyclo[2.2.1]hept-2-yl [(2R,6S,12Z,13aS,14aR,16aS)-5′-methyl-14a-{[(1-methylcyclopropyl)sulfonyl]carbamoyl}-5,16-dioxo-1,1′,2′,5,6,7,8,9,10,11,13a,14,14a,15,16,16a-hexadecahydrospiro[cyclopropa[e]pyrrolo[1,2-a][1,4]diazacyclopentadecine-2,3′-pyrano[2,3-c]quinolin]-6-yl]carbamate], in the assay on HCV genotype 1b replicon, the EC50 was determined as 0.2 nM. In addition, the IC50 in assay [1] came to 0.012 nM.

`Cc1nc2ccc(OC(F)(F)F)cc2c2c1O[C@]1(CC2)C[C@H]2C(=O)N[C@]3(C(=O)NS(=O)(=O)C4(C)CC4)C[C@H]3/C=C\CCCCC[C@H](NC(=O)OC3CCC3)C(=O)N2C1` [Example 180, cyclobutyl [(2R,6S,12Z,13aS,14aR,16aS)-5′-methyl-14a-{[(1-methylcyclopropyl)sulfonyl]carbamoyl}-5,16-dioxo-9′-(trifluoromethoxy)-1,1′,2′,5,6,7,8,9,10,11,13a,14,14a,15,16,16a-hexadecahydrospiro[cyclopropa[e]pyrrolo[1,2-a][1,4]diazacyclopentadecine-2,3′-pyrano[2,3-c]quinolin]-6-yl]carbamate]: in the assay with HCV genotype 1b replicon, the EC50 was determined as 1.72 nM. In addition, the IC50 in assay [1] was found to be 0.012 nM.
